tested on: lung cancer cell line NCI-H82; assay: Cell proliferation assay, NCI-H82 (CELL-TITER GLO); assay type: cell-based; settings: Homo sapiens, NCI-H82, 72 h, NCI-H82 cells, 72 h incubation, cell viability by CELL-TITER GLO, top concentration 1 μM; read-out: EC50, Inhibition of NCl-H82 Cell Proliferation
Experimental: The activity of a compound was determined in a cell proliferation assay using the lung cancer cell line NCI-H82. Cells (1,000 cells per well) were cultured with RPMI1640 in a 384-well tissue culture plate. After incubated overnight, the compound was added at predetermined concentrations, starting with 1 μM and followed by a 3-fold serial dilution. After the cells were incubated for 72 h, cell viability was determined using a CELL-TITER GLO assay. The CELL-TITER GLO reagent (25 μL) was added to each well and the luminescence was measured by a multimode microplate reader after a brief period of shaking. EC50 values were determined for the compound. The results are summarized in Table 1, wherein A represents a value no greater than 200 nM, B represents a value greater than 200 nM but no greater than 1 μM, C represents a value greater than 1 μM but no greater than […], and D represents a value greater than 5 μM.

SMILES	EC50
C#Cc1nc(NC(=O)N[C@@H](CO)c2ccc(-c3cc(F)ccc3C3(C#N)CC3)cn2)cs1 [Compound A77, (R)-1-(1-(5-(2-(1-Cyanocyclopropyl)-5-fluorophenyl)pyridin-2-yl)-2-hydroxyethyl)-3-(2-ethynylthiazol-4-yl)urea]	≤ 200 nM
C#Cc1nc(NC(=O)N[C@@H](CO)c2ccc(-c3c(F)cccc3C3(C#N)CC3)cn2)cs1 [Compound A78, (R)-1-(1-(5-(2-(1-Cyanocyclopropyl)-6-fluorophenyl)pyridin-2-yl)-2-hydroxy-ethyl)-3-(2-ethynylthiazol-4-yl)urea]	≤ 200 nM
C#Cc1nc(NC(=O)N[C@@H](CO)c2ccc(-c3c(F)cc(F)cc3C3(C#N)CC3)cn2)cs1 [Compound A79, (R)-1-(1-(5-(2-(1-Cyanocyclopropyl)-4,6-difluorophenyl)pyridin-2-yl)-2-hydroxyethyl)-3-(2-ethynylthiazol-4-yl)urea]	≤ 200 nM
C#Cc1nc(NC(=O)N[C@@H](CO)c2ccc(-c3ccccc3C3CC3(F)F)cn2)cs1 (stereo partly drawn) [Compound A80, 1-((1R)-1-(5-(2-(2,2-Difluorocyclopropyl)phenyl)pyridin-2-yl)-2-hydroxyethyl)-3-(2-ethynylthiazol-4-yl)urea]	≤ 200 nM
C#Cc1nc(NC(=O)N[C@@H](CO)c2ccc(-c3ccc(F)cc3C3CC3(F)F)cn2)cs1 (stereo partly drawn) [Compound A81, 1-((1R)-1-(5-(2-(2,2-Difluorocyclopropyl)-4-fluorophenyl)pyridin-2-yl)-2-hydroxyethyl)-3-(2-ethynylthiazol-4-yl)urea]	≤ 200 nM
C#Cc1nc(NC(=O)N(C)[C@@H](CO)c2ccc(-c3ccc(F)cc3C3CC3(F)F)cn2)cs1 (stereo partly drawn) [Compound A82, 1-((1R)-1-(5-(2-(2,2-Difluorocyclopropyl)-4-fluorophenyl)pyridin-2-yl)-2-hydroxyethyl)-3-(2-ethynylthiazol-4-yl)-1-methylurea]	≤ 200 nM
C#Cc1nc(NC(=O)N[C@@H](COC(N)=O)c2ccc(-c3ccc(F)cc3C3CC3(F)F)cn2)cs1 (stereo partly drawn) [Compound A83, (2R)-2-(5-(2-(2,2-Difluorocyclopropyl)-4-fluorophenyl)pyridin-2-yl)-2-(3-(2-ethynylthiazol-4-yl)ureido)ethyl carbamate]	≤ 200 nM
C#Cc1nc(NC(=O)N(C)[C@@H](COC(N)=O)c2ccc(-c3ccc(F)cc3C3CC3(F)F)cn2)cs1 (stereo partly drawn) [Compound A84, (2R)-2-(5-(2-(2,2-Difluorocyclopropyl)-4-fluorophenyl)pyridin-2-yl)-2-(3-(2-ethynylthiazol-4-yl)-1-methylureido)ethyl carbamate]	≤ 200 nM
C#Cc1nnc(NC(=O)N[C@@H](CO)c2ccc(-c3ccc(F)cc3C3CC3(F)F)cn2)s1 (stereo partly drawn) [Compound A85, 1-((1R)-1-(5-(2-(2,2-Difluorocyclopropyl)-4-fluorophenyl)pyridin-2-yl)-2-hydroxyethyl)-3-(5-ethynyl-1,3,4-thiadiazol-2-yl)urea]	≤ 200 nM
C#Cc1nnc(NC(=O)N(C)[C@@H](CO)c2ccc(-c3ccc(F)cc3C3CC3(F)F)cn2)s1 (stereo partly drawn) [Compound A86, 1-((1R)-1-(5-(2-(2,2-Difluorocyclopropyl)-4-fluorophenyl)pyridin-2-yl)-2-hydroxyethyl)-3-(5-ethynyl-1,3,4-thiadiazol-2-yl)-1-methylurea]	≤ 200 nM
C#Cc1nnc(NC(=O)N[C@@H](COC(N)=O)c2ccc(-c3ccc(F)cc3C3CC3(F)F)cn2)s1 (stereo partly drawn) [Compound A87, (2R)-2-(5-(2-(2,2-Difluorocyclopropyl)-4-fluorophenyl)pyridin-2-yl)-2-(3-(5-ethynyl-1,3,4-thiadiazol-2-yl)ureido)ethyl carbamate]	≤ 200 nM

Results, then the compound that gave them:

EC50	SMILES
≤ 200 nM	C#Cc1nc(NC(=O)N[C@@H](CO)c2ccc(-c3cccc(N4CCCC4)n3)cc2)cs1 [Compound A88, (R)-1-(2-Ethynylthiazol-4-yl)-3-(2-hydroxy-1-(4-(6-(pyrrolidin-1-yl)pyridin-2-yl)phenyl)ethyl)urea]
≤ 200 nM	C#Cc1nc(NC(=O)N[C@@H](CO)c2ccc(-c3cccc(N4CCCC4)n3)cn2)cs1 [Compound A89, (R)-1-(2-Ethynylthiazol-4-yl)-3-(2-hydroxy-1-(6-(pyrrolidin-1-yl)-[2,3′-bipyridin]-6′-yl)ethyl)urea]
≤ 200 nM	C#Cc1ncc(NC(=O)N[C@@H](COC(N)=O)c2ccc(-c3cccc(N4CCCC4)n3)cn2)s1 [Compound A90, (R)-2-(3-(2-Ethynylthiazol-5-yl)ureido)-2-(6-(pyrrolidin-1-yl)-[2,3′-bipyridin]-6′-yl)ethyl carbamate]
≤ 200 nM	C#Cc1nc(NC(=O)N(C)[C@@H](CO)c2ccc(-c3cccc(N4CCCC4)n3)cn2)cs1 [Compound A91, (R)-3-(2-Ethynylthiazol-4-yl)-1-(2-hydroxy-1-(6-(pyrrolidin-1-yl)-[2,3′-bipyridin]-6′-yl)ethyl)-1-methylurea]
≤ 200 nM	C#Cc1nc(NC(=O)N(C)[C@@H](COC(N)=O)c2ccc(-c3cccc(N4CCCC4)n3)cn2)cs1 [Compound A92, (R)-2-(3-(2-Ethynylthiazol-4-yl)-1-methylureido)-2-(6-(pyrrolidin-1-yl)-[2,3′-bipyridin]-6′-yl)ethyl carbamate]
≤ 200 nM	C#Cc1nnc(NC(=O)N[C@@H](CO)c2ccc(-c3cccc(N4CCCC4)n3)cc2)s1 [Compound A93, (R)-1-(5-Ethynyl-1,3,4-thiadiazol-2-yl)-3-(2-hydroxy-1-(4-(6-(pyrrolidin-1-yl)-pyridin-2-yl)phenyl)ethyl)urea]
≤ 200 nM	C#Cc1nnc(NC(=O)N[C@@H](COC(N)=O)c2ccc(-c3cccc(N4CCCC4)n3)cc2)s1 [Compound A94, (R)-2-(3-(5-Ethynyl-1,3,4-thiadiazol-2-yl)ureido)-2-(4-(6-(pyrrolidin-1-yl)-pyridin-2-yl)phenyl)ethyl carbamate]
≤ 200 nM	C#Cc1nnc(NC(=O)N(C)[C@@H](COC(N)=O)c2ccc(-c3cccc(N4CCCC4)n3)cc2)s1 [Compound A95, (R)-2-(3-(5-Ethynyl-1,3,4-thiadiazol-2-yl)-1-methylureido)-2-(4-(6-(pyrrolidin-1-yl)pyridin-2-yl)phenyl)ethyl carbamate]
≤ 200 nM	C#Cc1nnc(NC(=O)N[C@@H](CO)c2ccc(-c3cccc(N4CCCC4)n3)cn2)s1 [Compound A96, (R)-1-(5-Ethynyl-1,3,4-thiadiazol-2-yl)-3-(2-hydroxy-1-(6-(pyrrolidin-1-yl)-[2,3′-bipyridin]-6′-yl)ethyl)urea]
≤ 200 nM	C#Cc1nnc(NC(=O)N[C@@H](COC(N)=O)c2ccc(-c3cccc(N4CCCC4)n3)cn2)s1 [Compound A97, (R)-2-(3-(5-Ethynyl-1,3,4-thiadiazol-2-yl)ureido)-2-(6-(pyrrolidin-1-yl)-[2,3′-bipyridin]-6′-yl)ethyl carbamate]
≤ 200 nM	C#Cc1nc(NC(=O)N[C@@H](CO)c2ccc(-c3cccnc3N(C)C)cc2)cs1 [Compound A98, (R)-1-(1-(4-(2-(Dimethylamino)pyridin-3-yl)phenyl)-2-hydroxyethyl)-3-(2-ethynylthiazol-4-yl)urea]
≤ 200 nM	C#Cc1nc(NC(=O)N[C@@H](COC(N)=O)c2ccc(-c3cccnc3N(C)C)cc2)cs1 [Compound A99, (R)-2-(4-(2-(Dimethylamino)pyridin-3-yl)phenyl)-2-(3-(2-ethynylthiazol-4-yl)-ureido)ethyl carbamate]

— patent US20240101546A1, “HETEROARYL-ACETYLENES, PHARMACEUTICAL COMPOSITIONS THEREOF, AND THEIR THERAPEUTIC APPLICATIONS” (Eubulus Biotherapeutics Inc., priority 2020, published 2024)
